Like-named read-outs stand apart in the source and are kept apart here.

The test system of data set [1] is P. falciparum strain FcB1. In words: In vitro antiplasmodial activity, SYBR Green I-based fluorescence assay. The format is cell-based, Plasmodium falciparum. The protocol: The in vitro anti-malarial activity was investigated using the SYBR Green I-based fluorescence assay. The asexual intra-erythrocytic stage of P. falciparum laboratory strain FcB1 (chloroquine-resistant strain) was maintained in RPMI 1640 medium containing l-glutamine 200 µM, Hepes 25 mM and 5% human serum (Etablissement Français du Sang—EFS, Toulouse, France). For anti-malarial drug assays, stock solutions of compounds were diluted serially in RPMI 1640 culture medium to test final concentrations between 0.001 and 1 µg/mL in triplicates in a 96-well plate. The final concentration of DMSO was 0.5%. A suspension of sorbitol-synchronized, infected red blood cells (iRBCs) was adjusted to 1% parasitemia and 2% hematocrit in complete medium and added to the wells. Negative controls were prepared with a suspension of iRBCs and 0.5% DMSO. Chloroquine was used as the positive control. Test plates were incubated at 37 °C for 48 h. Afterwards, 100 μL SYBR Green I fluorescent lysis buffer were added to each well and incubated in a dark place at room temperature for 2 h. Fluorescence data were acquired using a fluorescence plate reader (BMG Fluostar Galaxy Labtech) with excitation and emission wavelengths at 485 nm and 518 nm, respectively. The fluorescence values (after subtraction of the background fluorescence of the non-parasitized RBCs) were plotted against the log of the drug concentration, and analyzed by non-linear regression (sigmoidal dose response/variable slope equation) to yield the IC50 (50% inhibitory concentration) that served as a measure of the anti-malarial activity.

Data set [2] can be described thus: Cytotoxic evaluation on the Hela cell line (MTT assay). The format is cell-based. To be noted: human, Hela cells. The protocol: The evaluation of the tested molecules’ cytotoxicity on the Hela cell line was conducted according to the method of Mosman with slight modifications. Briefly, cells (1 × 10^5 cells/mL) in 100 µL of complete medium, (MEM supplemented with 10% fetal bovine serum, 2 mM L-glutamine and antibiotics (100 U/mL penicillin and 100 µg/mL streptomycin) were seeded into each well of the 96-well plates and incubated at 37 °C and 5% CO2. After a 24 h incubation, 100 µL of medium with various product concentrations and appropriate controls were added and the plates were incubated for 72 h at 37 °C and 5% CO2. Each plate-well was then microscope-examined to detect possible precipitate formation before the medium was aspirated from the wells. MTT solution (100 µL, 0.5 mg/mL in RPMI) was then added to each well. Cells were incubated for 2 h at 37 °C and 5% CO2. After this time, the MTT solution was removed and DMSO (100 µL) was added to dissolve the resulting formazan crystals. Plates were shaken vigorously (300 rpm) for 5 min. The absorbance was measured at 570 nm with a microplate spectrophotometer (Eon BioTek). DMSO was used as blank and doxorubicin (purchased from Sigma Aldrich) as positive control. CC50 were calculated by non-linear regression analysis processed on dose response curves, using TableCurve 2D V5 software (San Jose, CA, USA). CC50 values represent the mean value calculated from three independent experiments.

The target in the next data set is T1, NQO2 (Homo sapiens, UniProt P16083).
T1 construct: The experiments were conducted with purified enzyme NQO2 (20 µg/mL)
T1 sequence (P16083 1-231): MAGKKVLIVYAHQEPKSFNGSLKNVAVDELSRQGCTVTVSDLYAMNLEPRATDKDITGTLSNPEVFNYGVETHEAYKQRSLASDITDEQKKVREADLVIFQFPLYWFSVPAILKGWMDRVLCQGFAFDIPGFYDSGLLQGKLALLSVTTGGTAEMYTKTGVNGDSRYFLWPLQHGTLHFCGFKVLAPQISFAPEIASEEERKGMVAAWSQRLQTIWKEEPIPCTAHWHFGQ
In words: EPR measurement of free radicals (ROS) produced after metabolism by NQO2. The format is biochemical. Conditions: for radical production after reduction by NQO2: EPR with DMPO spin trap; for ROS after NQO2 Reduction: purified NQO2 20 µg/mL, compound 125 µM, BNAH 1 mM, DMPO 125 mM, grades - to + + + + +. The protocol: As in previous work, we used an indirect assay to characterize the substrates. […] Using the capacity of NQO2 to reduce quinones into hydroquinones or quinols, we incubated the substrate candidates with the enzyme and its co-substrate, a synthetic hydride donor, N-benzyldihydronicotinamide. […] Thus, using an EPR-based assay, it was possible to evaluate the potency of the process by quantifying those bursts by measuring for the presence of free radicals. The rationale of the process was based on the simple idea that such substrates would generate bursts of ROS, which are particularly toxic for infected red cells.
We measured the ability of the selected compounds to produce superoxide radicals during the redox cycle of NQO2 by EPR spectroscopy. The following compounds were used as molecular tools: Menadione (Figure 1) as a reference compound and NQO2 substrate, S29434 as a specific NQO2 inhibitor [17] and dimethyl-pyrroline-N-oxide (DMPO) as a spin trap reagent to characterize ROS.
The experiments were conducted with purified enzyme NQO2 (20 µg/mL), DMPO (125 mM), tested compounds (125 µM) and BNAH (1 mM). For inhibition assays, we added S29434 (30 µM). All analyses were performed at room temperature. EPR spectra were recorded with a Bruker EMX-8/2.7 (9.86 GHz) with a high-sensitivity cavity (4119/HS 0205) and a gaussmeter (Bruker, Wissembourg, France), at X-band. For analyses, we used a flat quartz cell, FZKI160-5 × 0.3 mm (Magnettech, Berlin, Germany). We performed data processing and spectrum acquisition with WINEPR software (Bruker). Scanning parameters were: Number of scans, 5; magnetic field, 3460–3560 G; sweep width, 100 G; scan rate, 1.2 G/s; modulation amplitude, 1 G; sweep time, 83.88 s; time constant, 40.96 ms; modulation frequency, 100 kHz; and microwave power, 20 mW. The EPR spectra were analyzed as reported previously. The EPR spectrum was presented with the magnetic field on the x-axis in gauss (g) and the intensity of the peaks on the y-axis in arbitrary units (a.u.).

In another data set the test system is P. chabaudi chabaudi. Kind of data set: Four-days suppressive test, P. chabaudi chabaudi mice model (uncomplicated malaria). The format is in vivo, Plasmodium chabaudi chabaudi in Swiss mice. Conditions: chloroquine 10 mg/kg intraperitoneal D0 to D3, D8. The protocol: As previously described, the four-days suppressive standard test described by Knight and Peters was used to evaluate antimalarial activity of Compounds 1 and 3. P. chabaudi chabaudi (Pcc) and P. berghei ANKA (PbA) infections in Swiss mice were used as experimental models for uncomplicated and cerebral malaria, respectively. […] On the first day (D0), mice were inoculated intraperitoneally with 0.2 mL of infected blood containing about 1 × 10^6 parasitized erythrocytes. […] All mice groups were treated similarly for four consecutive days (D0–D3). Weight, parasitemia and survival were followed daily. To follow peripheral parasite density, thin blood smears were made daily from tail blood from D3 to D14. Blood smears were fixed with methanol and stained with a fast-acting variation of the May–Grünwald Giemsa staining (RAL 555 kit, RAL diagnostics). Average percentage chemosuppression was calculated at D8 for both infection models as ((A − B)/A) × 100 where A is the average percentage parasitemia in the negative control group and B is the average percentage parasitemia in the test group. Survival was monitored twice daily. […]

Where [3] appears, read: Plasmodium falciparum, FCB1, 48 h, P. falciparum FcB1 (chloroquine-resistant strain), 48 h, read-out: IC50.

Regarding `COc1ccc2c(c1)C1=C(C(=O)C2=O)C(C)(C)C(C)O1` (stereo not shown) [Compound 2], in data set [1], the “TI (Therapeutic Index = CC50/IC50)” value is 2.15. For the same compound, the IC50 in data set [1] (P. falciparum FcB1 (chloroquine-resistant strain), 48 h, read-out: IC50) was 0.58 ± 0.503 µM; in data set [1] (setting [3]), 0.63 to 0.85 µM. Also, the 50% cytotoxic concentration (CC50) at 72 h in data set [2] came to 1.25 ± 0.16 µM. Moreover, on NQO2, the “radical production after reduction by NQO2” value is “no radicals were detected”.

For the compound `COc1ccc2c(c1)C1=C(CCC(C)(C)O1)C(=O)C2=O` [Compound 7], the “TI (Therapeutic Index = CC50/IC50)” value in data set [1] worked out at 2.21. In data set [1] (setting [3]), the IC50 turned out to be 0.753 ± 0.484 µM. In data set [2], this compound yielded a CC50 at 72 h of 1.67 ± 0.368 µM. Also, on NQO2, the “radical production after reduction by NQO2” value is on record as “no radicals were detected”.

Turning to `COc1ccc2c(c1)C(=O)C1=C(OC(C)(C)CC1)C2=O` [Compound 6], in data set [1], the “TI (Therapeutic Index = CC50/IC50)” value is reported as above 0.94. Further, in data set [1] (setting [3]), the IC50 amounted to 19.5 ± 7.09 µM. Also, the CC50 at 72 h in data set [2] was above 18.4 µM. In addition, the “radical production after reduction by NQO2” value at NQO2 is given as “produced radicals”. For the same compound, the “ROS after Inhibition of NQO2 with S29434” value at NQO2 (EPR, as above plus S29434 30 µM, grades - to + +, key not given) is “+ +”. For the same compound, the “ROS after NQO2 Reduction” value at NQO2 (EPR, key not given) is recorded as “+ + +”.

Take `COc1ccc2c(c1)C(=O)C1=C(OC(C)C1(C)C)C2=O` (stereo not shown) [Compound 5]: in data set [1], the “CC50 values fold higher than the IC50 value” was 8-9 fold and the “TI (Therapeutic Index = CC50/IC50)” value is on record as 9.81. Further, the IC50 in data set [1] (setting [3]) was 1.52 ± 0.853 µM. The CC50 at 72 h in data set [2] stood at 14.9 ± 3.23 µM. Further, on NQO2, the “radical production after reduction by NQO2” value is given as “no radicals were detected”.

For `CCN(CC)CCCC(C)Nc1ccnc2cc(Cl)ccc12` (stereo not shown) [Chloroquine, chloroquine, reference compound], the IC50 in data set [1] (Plasmodium falciparum, FCB1, 48 h) was determined as 0.000164 ± 5.5e-05 µM. Also, the “% inhibition of parasite density at D8” value in the data set with P. chabaudi chabaudi was 98.2%.

Turning to `CC1=CC(=O)c2ccccc2C1=O` [Menadione, menadione, reference compound], on NQO2 (EPR, key not given), the “ROS after NQO2 Reduction” value is “+ + + + +”.

In turn, `COc1cccc2c1C(=O)c1c(O)c3c(c(O)c1C2=O)C[C@@](O)(C(=O)CO)C[C@@H]3O[C@H]1C[C@H](N)[C@H](O)[C@H](C)O1` [Doxorubicin, doxorubicin, reference compound] displayed a half-maximal cytotoxic concentration (CC50) at 72 h in data set [2] of 0.311 ± 0.478 µM.

Turning to `COc1ccc2c(c1)C(=O)C1=C(C2=O)C(C)(C)C(C)O1` (stereo not shown) [Compound 4], in data set [1], the “CC50 values fold higher than the IC50 value” is on record as 8-9 fold and the “TI (Therapeutic Index = CC50/IC50)” value came out at 8.53. Also, in data set [1] (setting [3]), the IC50 was found to be 1.38 ± 0.627 µM. In data set [2], this compound came in with a CC50 at 72 h of 11.8 ± 2.2 µM. Further, the “radical production after reduction by NQO2” value at NQO2 was “produced radicals”. Also, the “radical production after adding the specific NQO2 inhibitor S29434” value at NQO2 (EPR, S29434 30 µM) is recorded as “decreased”. The “ROS after NQO2 Reduction” value on NQO2 (EPR, key not given) is recorded as “+ + +”.
